{"source": "patent US7947690B2", "about": "“Pyrimidine derivative condensed with a non-aromatic ring” (Astellas Pharma Inc., priority 2004, dated 2011)", "note": "Where a name gives a salt, the structure may show the parent alone."}
{"tested_on": "MIN6B1 cell", "experiment": "Assay for promoting activity on insulin secretion", "assay_type": "cell-based, mouse", "details": "10 μM test compound in KRB-HEPES with 16.8 mM glucose, 37° C., 22 minutes; relative value, insulin concentration for only DMSO = 100%", "method": "(§1) (1) Assay for Promoting Activity on Insulin Secretion\n(§2) In this assay, promoting activities on insulin secretion of the test compounds were studied using MIN6B1 cell, which was a strain of mouse pancreatic β-cells, and glibenclamide, which was a commercially available insulin secretion secretagogue, as a reference compound. The assay procedure is given below.\n(§3) MIN6B1 cells were seeded on a 48-well plate at a concentration of 1×10^5 cells/well (0.25 ml) (The medium was prepared by adding FCS (fetal calf serum) to DMEM (Dulbecco's Modified Eagle Medium) containing 25 mM glucose such that the FCS concentration became 10%). After two days, the medium was suctioned by an aspirator, each well was Washed four times with 0.2 ml of KRB-HEPES buffer (Krebs-Ringer-bicarbonate-N-2-hydroxylethylpiperazine-N′-2-ethanesulfonic acid; 130 mM NaCl, 4.7 mM KCl, 1.2 mM KH2PO4, 1.2 mM MgCl2.6H2O, 0.25 mM CaCl2.2H2O, 2.5 mM NaHCO3, 0.5% BSA, and 10 mM N-2-hydroxyethylpiperazine-N′-2-ethanesulfonic acid (pH 7.4)) containing 2.8 mM glucose warmed to 37° C., 0.2 ml of said buffer was again added, and the cells were incubated at 37° C. for 30 to 60 minutes. After the buffer was suctioned by an aspirator, 0.25 ml of a solution containing 10 μM of each test compound in KRB-HEPES containing 16.8 mM glucose was added to each well, and the cells were incubated at 37° C. for 22 minutes. The samples were pipetted and diluted by 25 to 51 times, and the insulin concentrations were analyzed using an insulin assay kit (Rat Insulin [^125I] Biotrak Assay System with Magnetic Separation; Amersham Bioscience K.K.). The test compounds were dissolved in 100% DMSO, and were added at the final concentration of 0.1%. The activity was expressed as a relative value, provided that insulin concentration for only DMSO was 100%.", "units": {"Promotion activity on insulin secretion, %": "%"}}
{"smiles": "O=S1(=O)Cc2nc(-c3cc(F)c(Cl)cc3F)nc(N3CCC(O)(CCCO)CC3)c2C1", "note": "[Example 272, 1-[2-(4-chloro-2,5-difluorophenyl)-6,6-dioidxo-5,7-dihydrothieno[3,4-d]pyrimidin-4-yl]-4-(3-hydroxypropyl)piperidin-4-ol]", "Promotion activity on insulin secretion, %": 322}
{"smiles": "O=C(CO)NCC1CCN(c2nc(-c3cc(F)c(Cl)cc3F)nc3c2CS(=O)(=O)C3)CC1", "note": "[Example 331]", "Promotion activity on insulin secretion, %": 308}
{"tested_on": "MIN6B1 cell", "experiment": "Assay for promoting activity on insulin secretion", "assay_type": "cell-based, mouse", "details": "Mus musculus, 22 min, 10 μM test compound in KRB-HEPES with 16.8 mM glucose, 37° C., relative value, insulin concentration for only DMSO = 100%, read-out: Promotion activity on insulin secretion, %", "method": "as §1, §2, §3", "units": {"activity at 10 µM": "%"}}
{"smiles": "C[C@@H]1CCCN(c2nc(-c3cc(F)c(Cl)cc3F)nc3c2CS(=O)(=O)C3)C1", "note": "[Example 1, (R)-2-(4-chloro-2,5-difluorophenyl)-4-(3-methylpiperidin-1-yl)-5,7-dihydrothieno[3,4-d]pyrimidine 6,6-dioxide hydrochloride]", "activity at 10 µM": 355}
{"smiles": "NC(=O)CCN1CCN(c2nc(-c3cc(F)c(Cl)cc3F)nc3c2CS(=O)(=O)C3)CC1", "note": "[Example 269, 3-{4-[2-(4-chloro-2,5-difluorophenyl)-6,6-dioxido-5,7-dihydrothieno[3,4-d]pyrimidin-4-yl]piperazin-1-yl}propanamide]", "activity at 10 µM": 212}
{"smiles": "NC(=O)CCC1CCN(c2nc(-c3cc(F)c(Cl)cc3F)nc3c2CS(=O)(=O)C3)CC1", "note": "[Example 283, 3-{1-[2-(4-chloro-2,5-difluorophenyl)-6,6-dioxido-5,7-dihydrothieno[3,4-d]pyrimidin-4-yl]piperidin-4-yl}propanamide]", "activity at 10 µM": 375}
{"smiles": "O=S1(=O)Cc2nc(-c3cc(F)c(Cl)cc3F)nc(N3CCC(NCCCO)CC3)c2C1", "note": "[Example 287, 3-({1-[2-(4-chloro-2,5-difluorophenyl)-6,6-dioxido-5,7-dihydrothieno[3,4-d]pyrimidin-4-yl]piperidin-4-yl}amino)propan-1-ol]", "activity at 10 µM": 208}
{"smiles": "O=C(O)CCNC1CCN(c2nc(-c3cc(F)c(Cl)cc3F)nc3c2CS(=O)(=O)C3)CC1", "note": "[Example 288, 3-({1-[2-(4-chloro-2,5-difluorophenyl)-6,6-dioxido-5,7-dihydrothieno[3,4-d]pyrimidin-4-yl]piperidin-4-yl}amino)propionic acid]", "activity at 10 µM": 253}
{"smiles": "O=C(O)CCCC1CCN(c2nc(-c3cc(F)c(Cl)cc3F)nc3c2CS(=O)(=O)C3)CC1", "note": "[Example 291, 4-{1-[2-(4-chloro-2,5-difluorophenyl)-6,6-dioxido-5,7-dihydrothieno[3,4-d]pyrimidin-4-yl]piperidin-4-yl}butyric acid]", "activity at 10 µM": 269}
{"smiles": "O=C(O)CCCC1CCN(c2nc(C3CCCC3)nc3c2CS(=O)(=O)C3)CC1", "note": "[Example 407, 4-[1-(2-cyclopentyl-6,6-dioxido-5,7-dihydrothieno[3,4-d]pyrimidin-4-yl)piperidin-4-yl]butyric acid]", "activity at 10 µM": 325}
{"smiles": "COc1ccc(Cl)cc1C(=O)NCCc1ccc(S(=O)(=O)NC(=O)NC2CCCCC2)cc1", "note": "[Glibenclamide, glibenclamide, reference compound]", "activity at 10 µM": 122}
{"tested_on": "normal mice", "experiment": "Oral glucose tolerance test on normal mouse", "assay_type": "in vivo", "details": "ICR mice, nateglinide 10 mg/kg orally 30 minutes before glucose loading; at 30 minutes after glucose loading, relative to control group", "method": "(2) Oral Glucose Tolerance Test on Normal Mouse\nIn this assay, preventive activities of test compounds against hyperglycemia following glucose loading were examined using normal mice and nateglinide, a commercially available oral anti-hyperglycemic agent, as a reference compound. The assay procedure is given below.\nICR mice (male, six weeks old) that had been preliminary bred for one week were fasted for 18 to 20 hours to use as test animals. Each test compound was dissolved in 0.5% methylcellulose solution and orally administered at 3 mg/kg (10 mg/kg for nateglinide) before glucose loading. Timing to administer the test compound was selected to be optimal for each test compound, which was 10 minutes before glucose loading for the compounds of the present invention or 30 minutes before glucose loading for nateglinide, which was a reference compound. The hypoglycemic rate (%) at 30 minutes after glucose loading was measured relative to the control group.", "units": {"Hypoglycemic rate, %": "%"}}
{"smiles": "CC(C)[C@H]1CC[C@H](C(=O)N[C@H](Cc2ccccc2)C(=O)O)CC1", "note": "[Nateglinide, nateglinide]", "Hypoglycemic rate, %": 26}
